Converted amounts (≈) assume the structure as drawn. Read-outs that look alike come from different tables or passages of the source.
Key:
E. coli (MG1655) = assay: MIC by broth microdilution, E. coli; type: cell-based, Escherichia coli; conditions: E. coli MG1655, broth microdilution; for MIC: Escherichia coli
Procedure: (§1) In this study, we have, therefore, altered our strategy and used minimal inhibitory concentration assays to identify and improve antibacterial agents. A total of 10 pyrrolopyrimidines with variation of the 4-amino group were assayed for their MIC in E. coli (MG1655) and S. aureus (ATCC29213) using the broth microdilution method. Subsequently, the compounds were also counter-screened for their inhibition of human EGFR.
(§2) The MIC of compound 1–21 towards Escherichia coli (MG1655) and Staphylococcus aureus (ATCC29213) was determined following the standards that were recommended by the Clinical and Laboratory Standards Institute (CLSI) for the broth microdilution method. Briefly, the bacterial suspensions were adjusted to 0.5 McFarland standard (~1 × 10^8 colony forming units (CFU)/mL) and diluted 1:200 in Cation-Adjusted Mueller-Hinton Broth (CAMHB, […], […]). The suspension was subsequently added to polypropylene microtiter plates (100 µL/well, ~5 × 10^4 CFU/well) that were already prepared with different concentrations of the various halogenated fused pyrimidines (11 µL/well, two-fold serial dilutions). The plates were incubated at 37 °C overnight before inspection for visible growth and determination of the MIC values.

S. aureus (ATCC29213) = assay: MIC by broth microdilution, S. aureus; type: cell-based, Staphylococcus aureus; conditions: for MIC: Staphylococcus aureus; for Activity towards S. aureus (in words): culture, MIC assay
Procedure: as §1, §2

human EGFR = molecular target: T1, human EGFR (Homo sapiens, UniProt P00533); assay: Enzymatic EGFR (ErbB1) inhibition, Z'-LYTE; type: biochemical; conditions: 100 nM compound, ATP equal to KM
T1 construct: purchased Invitrogen (ThermoFisher), assay service
Procedure: The compounds were supplied in a 10 mM DMSO solution, and enzymatic EGFR (ErbB1) inhibition potency was determined by Invitrogen (ThermoFisher) using their Z’-LYTE® assay technology. The compounds were tested for their inhibitory activity at 100 nM in duplicates. The IC50 values that were reported for 1 and 5 are based on the average of 2 titration curves (20 data points), and were calculated from activity data with a four-parameter logistic model using SigmaPlot (Windows Version 12.0 from Systat Software, Inc., Palo Alto, CA, USA). Unless stated otherwise, the ATP concentration that was used was equal to apparent KM.

S. aureus = assay: MIC towards S. aureus in combination with the peptide betatide; type: cell-based, Staphylococcus aureus; conditions: betatide 8 mg/L (half its MIC)
Procedure: The concentration of betatide was 8 mg/L, which corresponds to half the MIC concentration.
as §2

[1] = S. aureus ATCC29213, broth microdilution, read-out: S. aureus MIC
[2] = ATCC29213, S. aureus, single agent (Table 3), read-out: Single Comp. MIC

| MIC (E. coli (MG1655)) [µg/mL] | MIC (S. aureus (ATCC29213); [1]) [µg/mL] | inhibition at 0.1 µM (human EGFR) [%] | MIC (S. aureus (ATCC29213); [2]) [µg/mL] | Combination with Betatide MIC (S. aureus) [µg/mL] | melting point | Compound | Activity towards S. aureus (in words) (S. aureus (ATCC29213)) | E. coli MIC (E. coli (MG1655)) [µg/mL] | S. aureus MIC (S. aureus (ATCC29213); S. aureus ATCC29213, broth microdilution) [µg/mL] | Human EGFR % inhibition (human EGFR) [%] |
| --- | --- | --- | --- | --- | --- | --- | --- | --- | --- | --- |
| > 128 | > 128 | 90 |  |  |  | C[C@@H](Nc1ncnc2[nH]c(-c3ccc(N)cc3)cc12)c1ccc(Br)cc1 [Compound 15, (R)-6-(4-Aminophenyl)-N-(1-(4-bromophenyl)ethyl)-7H-pyrrolo[2,3-d]pyrimidin-4-amine] |  |  |  |  |
| > 128 | > 128 | 58 |  |  |  | C[C@@H](Nc1ncnc2[nH]c(-c3ccc(F)cc3)cc12)c1ccc(Br)cc1 [Compound 13, (R)-N-(1-(4-Bromophenyl)ethyl)-6-(4-fluorophenyl)-7H-pyrrolo[2,3-d] pyrimidin-4-amine] |  |  |  |  |
| > 128 | > 128 | 66 |  |  |  | C[C@@H](Nc1ncnc2[nH]c(-c3ccccc3)cc12)c1ccc(Br)cc1 [Compound 12, (R)-N-(1-(4-Bromophenyl)ethyl)-6-phenyl-7H-pyrrolo[2,3-d] pyrimidin-4-amine] |  |  |  |  |
| > 128 | 8 (≈ 17.5 µM) | 43 | 8 (≈ 17.5 µM) | 2 |  | C[C@@H](Nc1ncnc2[nH]c(-c3ccc(O)cc3)cc12)c1ccc(I)cc1 [Compound 6, (R)-4-(4-((1-(4-Iodophenyl)ethyl)amino)-7H-pyrrolo[2,3-d]pyrimidin-6-yl)phenol] |  |  |  |  |
| > 128 | > 128 |  |  |  |  | COc1ccc(-c2cc3c(N[C@@H](C)c4ccc(Br)cc4)ncnc3[nH]2)cc1 [Compound 11, (S)-N-(1-(4-Bromophenyl)ethyl)-6-(4-methoxyphenyl)-7H-pyrrolo[2,3-d]pyrimidin-4-amine] |  |  |  |  |
| > 128 | > 128 | 33 |  |  |  | C[C@@H](Nc1ncnc2[nH]c(-c3ccc([N+](=O)[O-])cc3)cc12)c1ccc(Br)cc1 [Compound 14, (R)-N-(1-(4-Bromophenyl)ethyl)-6-(4-nitrophenyl)-7H-pyrrolo [2,3-d] pyrimidin-4-amine] |  |  |  |  |
| > 128 | 32 (≈ 75.1 µM) | 5 | 32 (≈ 75.1 µM) | 4 |  | C[C@@H](Nc1ncnc2sc(-c3ccc(O)cc3)cc12)c1ccc(Br)cc1 [Compound 21, (R)-4-(4-((1-(4-Bromophenyl)ethyl)amino)thieno[2,3-d]pyrimidin-6-yl)phenol] |  |  |  |  |
| > 128 | > 128 | 12 |  |  | 107.1 to 109.4 °C | COc1ccc(-c2cc3c(N[C@H](C)c4ccc(Br)cc4)ncnc3s2)cc1 [Compound 20, (R)-N-(1-(4-Bromophenyl)ethyl)-6-(4-methoxyphenyl)thieno [2,3-d] pyrimidin-4-amine] | no activity |  |  |  |
| > 128 | 16 (≈ 39.1 µM) | 89 | 16 (≈ 39.1 µM) | 4 |  | C[C@@H](Nc1ncnc2[nH]c(-c3ccc(O)cc3)cc12)c1cccc(Br)c1 [Compound 7, (R)-4-(4-((1-(3-Bromophenyl)ethyl)amino)-7H-pyrrolo[2,3-d]pyrimidin-6-yl)phenol] |  |  |  |  |
| > 128 | > 128 | 80 |  |  |  | C[C@@H](Nc1ncnc2[nH]c(-c3ccccc3O)cc12)c1ccc(Br)cc1 [Compound 18, (R)-2-(4-((1-(4-Bromophenyl)ethyl)amino)-7H-pyrrolo[2,3-d]pyrimidin-6-yl)phenol] |  |  |  |  |
| > 128 | 16 (≈ 39.1 µM) | 73 | 8 (≈ 19.5 µM) | 2 |  | C[C@@H](Nc1ncnc2[nH]c(-c3cccc(O)c3)cc12)c1ccc(Br)cc1 [Compound 19, (R)-3-(4-((1-(4-Bromophenyl)ethyl)amino)-7H-pyrrolo[2,3-d]pyrimidin-6-yl)phenol] |  |  |  |  |
| > 128 | > 128 | 85 |  |  |  | C[C@@H](Nc1ncnc2[nH]c(-c3ccc(S(N)(=O)=O)cc3)cc12)c1ccc(Br)cc1 [Compound 17, (R)-4-(4-((1-(4-Bromophenyl)ethyl)amino)-7H-pyrrolo[2,3-d]pyrimidin-6-yl)benzene-sulfonamide] |  |  |  |  |
| > 128 | > 128 |  |  |  |  | C[C@H](Nc1ncnc2[nH]c(-c3ccc(O)cc3)cc12)c1ccc(Br)cc1 [Compound 9, (S)-4-(4-((1-(4-Bromophenyl)ethyl)amino)-7H-pyrrolo[2,3-d]pyrimidin-6-yl)phenol] | abolished all activity |  |  |  |
| > 128 | 16 (≈ 46.5 µM) | 91 | 16 (≈ 46.5 µM) | 8 |  | Cc1ccc([C@@H](C)Nc2ncnc3[nH]c(-c4ccc(O)cc4)cc23)cc1 [Compound 2, (R)-4-(4-((1-(p-Tolyl)ethyl)amino)-7H-pyrrolo[2,3-d]pyrimidin-6-yl)phenol] |  |  |  |  |
| > 128 | > 128 | 67 |  |  |  | Oc1ccc(-c2cc3c(NCc4ccc(Br)cc4)ncnc3[nH]2)cc1 [Compound 8, 4-(4-((4-Bromobenzyl)amino)-7H-pyrrolo[2,3-d]pyrimidin-6-yl)phenol] | abolished all activity |  |  |  |
|  |  |  |  |  | 254.9 to 256 °C (dec.) | C[C@@H](Nc1ncnc2[nH]c(-c3ccc(O)cc3)cc12)c1ccc(I)cc1 (hydrate or solvate) [Compound 6, (R)-4-(4-((1-(4-Iodophenyl)ethyl)amino)-7H-pyrrolo[2,3-d]pyrimidin-6-yl)phenol] |  |  |  |  |
| > 128 | 16 (≈ 43.9 µM) | 91 | 16 (≈ 43.9 µM) | 4 | 216.6 °C (dec.) | C[C@@H](Nc1ncnc2[nH]c(-c3ccc(O)cc3)cc12)c1ccc(Cl)cc1 [Compound 4, (R)-4-(4-((1-(4-Chlorophenyl)ethyl)amino)-7H-pyrrolo[2,3-d]pyrimidin-6-yl)phenol] |  |  |  |  |
| > 128 | > 128 | 42 |  |  |  | COC(=O)c1ccc(-c2cc3c(N[C@H](C)c4ccc(Br)cc4)ncnc3[nH]2)cc1 [Compound 16, Methyl (R)-4-(4-((1-(4-bromophenyl)ethyl)amino)-7H-pyrrolo[2,3-d]pyrimidin-6-yl)be-nzoate] |  |  |  |  |
|  |  |  |  |  |  | (R)-4-(4-((1-(4-Bromophenyl)ethyl)(methyl)amino)-7H-pyrrolo [2,3-d]pyrimidin-6-yl)phenol [Compound 10] | abolished all activity | >128 | >128 | 16 |
|  |  |  |  |  | 144.1 to 145.4 °C | C[C@@H](Nc1ncnc2sc(-c3ccc(O)cc3)cc12)c1ccc(Br)cc1 (hydrate or solvate) [Compound 21, (R)-4-(4-((1-(4-Bromophenyl)ethyl)amino)thieno[2,3-d]pyrimidin-6-yl)phenol] |  |  |  |  |
| > 128 | > 128 | 92 |  |  |  | C[C@@H](Nc1ncnc2[nH]c(-c3ccc(O)cc3)cc12)c1ccc(F)cc1 [Compound 3] | inactive |  |  |  |

Source: PMC9330635, “Halogenated Pyrrolopyrimidines with Low MIC on Staphylococcus aureus and Synergistic Effects with an Antimicrobial Peptide” (Antibiotics, 2022)
